What follows are compounds tested against T1, NaV1.7 (Homo sapiens, UniProt Q15858) (assay: Whole cell patch clamp, external block of NaV1.7 current (compound in external solution)). Settings: % inhibition at test concentration 1,000 μM, compound applied externally; read-out: Nav1.7 Extracellular Inhibition.
T1 construct: expressed in transfected cells; tetracycline-inducible, kept under hygromycin and blasticidin
Assay type: cell-based
Protocol: Representative compounds of the invention were synthesized according to the described methods and tested for the ability to inhibit voltage-gated sodium channels.
NaV1.7 was expressed upon induction with tetracycline. Cells were cultured in DMEM containing 10% dialyzed Fetal Bovine Serum (VWR, Radnor, Pa.), 1% Glutamax (VWR, Radnor, Pa.), 1% Penicillin-Streptomycin (VWR, Radnor, Pa.), 100 mg/L Hygromycin (Thermo Fisher Scientific, Waltham, Mass. and 5 mg/L Blasticidin (Alfa Aesar, Haverhill, Mass.). Cells were grown and maintained at 37° C. in a humidified environment containing 10% CO2 in air. Cells were detached from the culture flask for passage and harvested using 0.05% Trypsin-EDTA (Thermo Fisher Scientific, Waltham, Mass.). To induce NaV1.7, cells were induced with tetracycline (0.1-1 μg/mL, IBI Scientific, Peosta, Iowa) the day before recording and plated onto 24-well plates. Cells were washed with DPBS (VWR, Radnor, Pa.), trypsinized and then triturated five times in 10 mL of growth media to break apart cell aggregates. For one 24-well plate, 2 mL of cell suspension was mixed with 23 mL of fresh growth media and 0.1-1 μg/mL tetracycline added. 1 ml of mixed media with cells was then added to each well of a 24-well plate, with a 12 mm coverslip already placed in the bottom of the well. Cells were then incubated in 37° C. and 10% CO2 overnight.
The intracellular solution contained the following (in mM) CsCl 135, NaCl 10, EGTA 10, HEPES 10, MgCl2 2, adjusted to pH 7.2 with CsOH. The external solution was a normal Ringer solution containing (in mM) NaCl 155, HEPES 10, glucose 10, KCl 3.5, CaCl2 1.5, MgCl2 1 adjusted to pH 7.4 with NaOH. CsCl is from Alfa Aesar, Haverhill, Mass. All other chemicals are from Sigma-Aldrich, St. Louis, Mo. In order to test the degree of internal block by test compounds the compounds were dissolved in internal solution at the indicated test concentration. […] In order to test the degree of external block by test compounds the compounds were dissolved in external solution at the indicated test concentration.
18-24 hours after cells were induced with tetracycline, coverslips were placed into a chamber filled with Normal Ringer solution at room temperature and the chamber placed on a microscope. Pipettes were pulled from borosilicate glass on a P97 puller (Sutter Instrument, Novato, Calif.) and polished with a MF-830 Microforge (Narishige International USA, Inc, Amityville, N.Y.) to have a resistance of 1.5-2.5 MΩ when filled with CsCl internal solution at room temperature. Healthy cells (those that are round and translucent with no visible blemishes) were chosen for seal formation. A seal was formed between the pipette and the cell, and a brief pulse of suction was used to “break in” and establish the whole-cell configuration. The membrane potential was held at −100 mV before the voltage protocol began. Only cells with series resistance between 1.5-5 MΩ were retained for analysis. The voltage protocol was as follows: Cells were held at −100 mV for 12 ms followed by a hyperpolarizing step to −105 mV for 12 ms to monitor the leak. Cells were then stepped back to −100 mV for 40 ms. Cells were then depolarized to −20 mV for 10 ms and then returned to −100 mV for 26 ms.
Once the recording was started, the voltage protocol was run at 30 second intervals for 5 minutes to get a stable baseline. This is followed by 5 Hz stimulation of the same voltage protocol run until the end of experiment. […] The test compound is added for 5 minutes before washing out with normal Ringer's solution. Currents were recorded using PatchMaster software with Heka EPC10 (HEKA Electronics, Lambrecht, Germany). Only cells with inward current amplitudes at −20 mV between 400 pA and 4 nA were accepted. In addition, cells having leak currents greater than 10% of their current amplitudes were discarded. […]

T1 sequence (Q15858 whole entry): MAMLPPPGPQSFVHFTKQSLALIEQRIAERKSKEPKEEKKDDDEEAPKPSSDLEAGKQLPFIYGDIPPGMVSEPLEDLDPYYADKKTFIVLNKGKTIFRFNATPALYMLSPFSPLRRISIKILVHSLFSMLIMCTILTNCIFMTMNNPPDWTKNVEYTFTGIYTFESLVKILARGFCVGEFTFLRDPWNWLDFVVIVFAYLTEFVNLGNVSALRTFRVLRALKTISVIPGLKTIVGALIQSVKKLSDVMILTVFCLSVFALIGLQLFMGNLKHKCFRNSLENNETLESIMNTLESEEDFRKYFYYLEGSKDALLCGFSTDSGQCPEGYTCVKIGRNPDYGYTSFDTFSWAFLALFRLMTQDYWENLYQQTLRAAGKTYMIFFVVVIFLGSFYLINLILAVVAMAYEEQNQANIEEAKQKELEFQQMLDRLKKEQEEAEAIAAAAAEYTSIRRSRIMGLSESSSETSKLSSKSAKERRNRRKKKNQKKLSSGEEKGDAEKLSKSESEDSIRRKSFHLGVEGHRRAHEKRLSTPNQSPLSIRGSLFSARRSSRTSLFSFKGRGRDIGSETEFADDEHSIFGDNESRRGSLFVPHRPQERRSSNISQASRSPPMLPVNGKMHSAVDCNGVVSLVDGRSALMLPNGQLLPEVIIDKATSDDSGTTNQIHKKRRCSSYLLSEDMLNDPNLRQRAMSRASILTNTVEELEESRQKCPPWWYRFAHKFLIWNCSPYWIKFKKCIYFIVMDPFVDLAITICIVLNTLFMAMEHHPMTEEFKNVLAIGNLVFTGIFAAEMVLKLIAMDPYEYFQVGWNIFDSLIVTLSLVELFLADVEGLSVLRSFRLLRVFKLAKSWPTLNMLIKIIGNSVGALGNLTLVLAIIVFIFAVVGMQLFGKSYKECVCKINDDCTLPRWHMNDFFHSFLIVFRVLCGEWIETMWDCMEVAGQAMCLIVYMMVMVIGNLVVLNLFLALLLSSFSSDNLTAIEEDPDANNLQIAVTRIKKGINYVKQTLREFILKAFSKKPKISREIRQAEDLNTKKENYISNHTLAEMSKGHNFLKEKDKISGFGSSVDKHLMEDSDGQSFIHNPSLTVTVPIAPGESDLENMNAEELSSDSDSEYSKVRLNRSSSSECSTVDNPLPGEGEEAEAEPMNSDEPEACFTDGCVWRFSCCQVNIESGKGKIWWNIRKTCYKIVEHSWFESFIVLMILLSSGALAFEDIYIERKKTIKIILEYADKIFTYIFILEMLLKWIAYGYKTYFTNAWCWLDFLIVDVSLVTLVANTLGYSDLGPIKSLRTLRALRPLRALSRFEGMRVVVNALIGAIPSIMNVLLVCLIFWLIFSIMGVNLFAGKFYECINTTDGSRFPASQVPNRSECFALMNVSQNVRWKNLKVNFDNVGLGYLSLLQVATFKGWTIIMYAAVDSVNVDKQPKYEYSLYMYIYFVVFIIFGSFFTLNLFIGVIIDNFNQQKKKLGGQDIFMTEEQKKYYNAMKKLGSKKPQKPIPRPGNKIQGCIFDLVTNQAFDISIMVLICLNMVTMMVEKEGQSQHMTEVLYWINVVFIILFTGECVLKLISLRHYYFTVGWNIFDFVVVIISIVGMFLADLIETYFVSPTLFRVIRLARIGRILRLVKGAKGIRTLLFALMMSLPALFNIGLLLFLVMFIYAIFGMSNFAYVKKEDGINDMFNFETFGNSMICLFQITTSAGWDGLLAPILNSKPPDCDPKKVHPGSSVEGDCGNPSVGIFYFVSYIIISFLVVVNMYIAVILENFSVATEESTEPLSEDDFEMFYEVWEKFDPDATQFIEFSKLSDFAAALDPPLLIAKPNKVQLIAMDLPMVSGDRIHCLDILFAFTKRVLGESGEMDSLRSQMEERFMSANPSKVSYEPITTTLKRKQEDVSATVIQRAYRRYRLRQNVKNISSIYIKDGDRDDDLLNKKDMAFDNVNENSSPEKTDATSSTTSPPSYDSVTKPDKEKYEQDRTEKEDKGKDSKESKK

inhibition at 1000 µM [%] | SMILES
< 40 | Cc1cccc(C)c1NC(=O)Cn1ccc[n+]1CC(=O)Nc1c(C)cccc1C [Compound 109]
< 40 | CCOC(=O)CCCn1ccc[n+]1CC(=O)Nc1c(C)cccc1C [Compound 75]
< 40 | CCOC(=O)Cn1cc(C)c[n+]1CC(=O)Nc1c(C)cccc1C [Compound 76]

— US10934263B2, “Charged ion channel blockers and methods for use” (Nocion Therapeutics, Inc., priority 2019, dated 2021)
